Columns and labels:
human BACE1 = human BACE1 (Homo sapiens, UniProt P56817); experiment: Fluorescent kinetic assay, BACE1 inhibition (FRET peptide substrate cleavage); assay type: biochemical; settings: 10 nM BACE1, 25 μM substrate WABC-6, 50 mM Na-Acetate pH 4.5, room temperature
human BACE1, sequence (P56817 46-501): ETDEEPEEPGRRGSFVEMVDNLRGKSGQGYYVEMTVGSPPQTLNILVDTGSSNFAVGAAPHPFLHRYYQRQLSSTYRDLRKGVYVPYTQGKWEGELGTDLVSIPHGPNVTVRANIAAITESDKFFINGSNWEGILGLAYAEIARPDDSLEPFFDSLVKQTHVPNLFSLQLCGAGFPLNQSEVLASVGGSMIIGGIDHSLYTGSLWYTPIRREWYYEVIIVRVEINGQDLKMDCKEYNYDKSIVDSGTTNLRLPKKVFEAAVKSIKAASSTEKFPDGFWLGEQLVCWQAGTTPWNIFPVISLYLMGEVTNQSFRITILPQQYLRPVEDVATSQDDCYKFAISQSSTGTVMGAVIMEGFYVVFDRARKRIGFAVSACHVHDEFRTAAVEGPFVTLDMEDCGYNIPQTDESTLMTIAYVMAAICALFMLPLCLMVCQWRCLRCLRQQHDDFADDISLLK

SMILES	melting point	IC50 (human BACE1)
NC(N)=NC(=O)Cc1c(-c2ccccc2)csc1-c1ccc(Oc2ccccc2)cc1 [Example 3, N″-{[2-(4-Phenoxyphenyl)-4-phenylthien-3-yl]acetyl}guanidine]	116 to 118 °C	2060 nM
CCCOc1ccc(-c2scc(-c3ccccc3)c2CC(=O)NC(=N)N)cc1 [Example 7, N-{[4-Phenyl-2-(4-propoxyphenyl)thien-3-yl]acetyl}guanidine]	94 to 95 °C	–
CC(=O)c1ccc(Oc2ccc(-c3scc(-c4ccccc4Cl)c3CC(=O)N=C(N)N)cc2)cc1 [Example 9, N″-{[2-[4-(4-Acetylphenoxy)phenyl]-4-(2-chlorophenyl)thien-3-yl]acetyl}guanidine]	117 to 118 °C	–
CCC(CC)NC(=O)c1ccc(-c2scc(-c3ccccc3Cl)c2CC(=O)NC(=N)NCCCO)cc1 [Example 13, 4-[4-(2-Chlorophenyl)-3-(2-{[[(3-hydroxypropyl)amino](imino)-methyl]amino}-2-oxoethyl)thien-2-yl]-N-(1-ethylpropyl)benzamide]	109 to 110 °C	–
CCCOc1ccc(-c2scc(-c3ccccc3Cl)c2CC(=O)NC(=N)NCCCO)cc1 [Example 12, 2-[4-(2-Chlorophenyl)-2-(4-propoxyphenyl)thien-3-yl]-N-[[(3-hydroxypropyl)amino](imino)methyl]acetamide]	49 to 50 °C	–
NC(N)=NC(=O)Cc1c(-c2ccccc2Cl)csc1-c1ccc(Oc2ccccc2)cc1 [Example 4, N″-{[4-(2-Chlorophenyl)-2-(4-phenoxyphenyl)thien-3-yl]acetyl}guanidine]	76 to 78 °C	1600 nM
CCCOc1ccc(-c2scc(-c3ccccc3OC(F)(F)F)c2CC(=O)N=C(N)N)cc1 [Example 6, N″-({2-(4-Propoxyphenyl)-4-[2-(trifluoromethoxy)phenyl]thien-3-yl}acetyl)guanidine]	90 to 92 °C	1600 nM
CCCOc1ccc(-c2scc(-c3ccccc3Cl)c2CC(=O)N=C(N)N)cc1 [Example 1, N″-{[4-(2-Chlorophenyl)-2-(4-propoxyphenyl)thien-3-yl]acetyl}guanidine]	98 to 99 °C	–
NC(N)=NC(=O)Cc1c(-c2ccccc2Cl)csc1-c1ccc(OCCc2cn[nH]c2)cc1 [Example 11, 2-(4-(2-Chlorophenyl)-2-{4-[2-(1H-pyrazol-4-yl)ethoxy]phenyl}-thien-3-yl)-N-(diaminomethylene)acetamide]	71 to 72 °C	–
N=C(NCCCO)NC(=O)Cc1c(-c2ccccc2Cl)csc1-c1ccc(C(=O)NCC2CC2)cc1 [Example 16, 4-[4-(2-Chlorophenyl)-3-(2-{[[(3-hydroxypropyl)amino](imino)-methyl]amino}-2-oxoethyl)thien-2-yl]-N-(cyclopropylmethyl)benzamide]	100 to 101 °C	–
CCCCNC(=O)c1ccc(-c2scc(-c3ccccc3Cl)c2CC(=O)NC(=N)NCCCO)cc1 [Example 17, N-Butyl-4-[4-(2-chlorophenyl)-3-(2-{[[(3-hydroxypropyl)amino]-(imino)methyl]amino}-2-oxoethyl)thien-2-yl]benzamide]	92 to 95 °C	–
N=C(NCCCO)NC(=O)Cc1c(-c2ccccc2Cl)csc1-c1ccc(C(=O)NCC(F)(F)F)cc1 [Example 14, 4-[4-(2-Chlorophenyl)-3-(2-{[[(3-hydroxypropyl)amino](imino)-methyl]amino}-2-oxoethyl)thien-2-yl]-N-(2,2,2-trifluoroethyl)benzamide]	103 to 105 °C	–
CCCOc1ccc(-c2scc(-c3ccccc3Cl)c2CC(=O)NC(=N)NCCCO)cc1C [Example 18, 2-[4-(2-Chlorophenyl)-2-(3-methyl-4-propoxyphenyl)thien-3-yl]-N-[[(3-hydroxypropyl)amino](imino)methyl]acetamide]	73 to 76 °C	–
CCCOc1ccc(-c2csc(-c3ccccc3Cl)c2CC(=O)N=C(N)N)cc1 [Example 5, N″-{[2-(2-Chlorophenyl)-4-(4-propoxyphenyl)thien-3-yl]acetyl}guanidine]	111 to 113 °C	–
CCCNC(=O)c1ccc(-c2scc(-c3ccccc3Cl)c2CC(=O)NC(=N)NCCCO)cc1 [Example 15, 4-[4-(2-Chlorophenyl)-3-(2-{[[(3-hydroxypropyl)amino](imino)-methyl]amino}-2-oxoethyl)thien-2-yl]-N-propylbenzamide]	116 to 118 °C	–
NC(N)=NC(=O)Cc1c(-c2ccccc2)csc1-c1ccccc1 [Example 2, N″-[(2,4-Diphenylthien-3-yl)acetyl]guanidine]	204 to 205.5 °C	–
CCCOc1ccc(-c2csc(-c3ccccc3)c2CC(=O)N=C(N)N)cc1 [Example 8, N″-{[2-Phenyl-4-(4-propoxyphenyl)thien-3-yl]acetyl}guanidine]	131 to 132 °C	–
CCC(=O)c1ccc(Oc2ccc(-c3scc(-c4ccccc4Cl)c3CC(=O)N=C(N)N)cc2)cc1 [Example 10, N″-({4-(2-Chlorophenyl)-2-[4-(4-propionylphenoxy)phenyl]thien-3-yl}acetyl)guanidine]	123 to 124 °C	1730 nM
CCCOc1ccc(-c2scc(-c3ccccc3Cl)c2CC(=O)NC(=N)NCCCO)c(C)c1 [Example 19, 2-[4-(2-Chlorophenyl)-2-(2-methyl-4-propoxyphenyl)thien-3-yl]-N-[[(3-hydroxypropyl)amino](imino)methyl]acetamide]	103 to 105.5 °C	–

Source: patent publication US7459567B2, “Substituted thienyl and furyl acylguanidines and methods of their use as beta-secretase modulators” (Wyeth, priority 2005, dated 2008)
